Measured values: patent US20140073801A1, “PYRROLIDINE DERIVATIVES AS SELECTIVE GLYCOSIDASE INHIBITORS AND USES THEREOF” (Summit Corporation Plc, priority 2011, published 2014)

Assays:
[1] = molecular target: T1, human β-hexosaminidase [human placenta] (HexA/B); experiment: Determination of IC50 values for inhibition of human β-hexosaminidase; format: biochemical; conditions: human β-hexosaminidase, human placenta; room temperature, thirty minutes
T1 construct: other: human β-hexosaminidase, human placenta; room temperature, thirty minutes
Experimental: (§1) Inhibitors identified from the screen described in Example 1 were evaluated for IC50 against human β-hexosaminidase [human placenta, Sigma-Aldrich] using a range of inhibitor concentrations from 300 μM to 0.003 μM or 100 μM to 0.001 μM and the following reaction conditions:
(§2) Reactions were carried out at room temperature for thirty minutes and then quenched through the addition of 150 μl 0.5M Na2CO3. Fluorescence readings were taken at excitation wavelength 360 nm and emission wavelength 450 nm. IC50 values were calculated using XLFit 4. The selectivity ratio for inhibition of human O-GlcNAcase over human β-hexosaminidase is defined here as:
(§3) IC50(human β-hexosaminidase)/IC50(Human OGA)

[2] = tested on: human β-hexosaminidase [human placenta] (HexA/B); experiment: as above; format: biochemical; conditions: ratio
Experimental: as §1, §2, §3

[3] = tested on: O-GlcNAc modified proteins in PC-12 cells or SH-SY5Y cells; experiment: Western blot analyses of O-GlcNAc modified proteins in cells; format: cell-based; conditions: western blot, cells dosed 4 hours at 37° C.; cell line not given
Experimental: PC-12 cells or SH-SY5Y cells were dosed with the test compound or vehicle control at 37° C. for 4 hours. Once the incubation was completed the media was removed and cells were lysed. Extracted protein was then used for Western blot analysis using standard molecular biology techniques. The resulting membrane was probed with antibodies specific for tau phosphorylation sites (pSer396, pSer422, pThr231, pSer262) or with antibodies specific for O-GlcNAcylation sites (RL-2 or CTD110.6). The primary antibodies were visualised using appropriate secondary conjugated with the fluorophores Alexa 532 or Alexa 488. Actin was visualised using a FITC conjugated primary antibody. Relative quantification was measured in relation to the actin signal using Image lab software (BRL). Marked increases in O-GlcNAcylated proteins within the cells were observed as compared to controls when cells were dosed with test compound.

human OGA [4] = molecular target: T2, human OGA (Homo sapiens, UniProt O60502); experiment: Determination of IC50 values for inhibition of human OGA; format: biochemical
T2 construct: made in house
T2 sequence (O60502 1-916): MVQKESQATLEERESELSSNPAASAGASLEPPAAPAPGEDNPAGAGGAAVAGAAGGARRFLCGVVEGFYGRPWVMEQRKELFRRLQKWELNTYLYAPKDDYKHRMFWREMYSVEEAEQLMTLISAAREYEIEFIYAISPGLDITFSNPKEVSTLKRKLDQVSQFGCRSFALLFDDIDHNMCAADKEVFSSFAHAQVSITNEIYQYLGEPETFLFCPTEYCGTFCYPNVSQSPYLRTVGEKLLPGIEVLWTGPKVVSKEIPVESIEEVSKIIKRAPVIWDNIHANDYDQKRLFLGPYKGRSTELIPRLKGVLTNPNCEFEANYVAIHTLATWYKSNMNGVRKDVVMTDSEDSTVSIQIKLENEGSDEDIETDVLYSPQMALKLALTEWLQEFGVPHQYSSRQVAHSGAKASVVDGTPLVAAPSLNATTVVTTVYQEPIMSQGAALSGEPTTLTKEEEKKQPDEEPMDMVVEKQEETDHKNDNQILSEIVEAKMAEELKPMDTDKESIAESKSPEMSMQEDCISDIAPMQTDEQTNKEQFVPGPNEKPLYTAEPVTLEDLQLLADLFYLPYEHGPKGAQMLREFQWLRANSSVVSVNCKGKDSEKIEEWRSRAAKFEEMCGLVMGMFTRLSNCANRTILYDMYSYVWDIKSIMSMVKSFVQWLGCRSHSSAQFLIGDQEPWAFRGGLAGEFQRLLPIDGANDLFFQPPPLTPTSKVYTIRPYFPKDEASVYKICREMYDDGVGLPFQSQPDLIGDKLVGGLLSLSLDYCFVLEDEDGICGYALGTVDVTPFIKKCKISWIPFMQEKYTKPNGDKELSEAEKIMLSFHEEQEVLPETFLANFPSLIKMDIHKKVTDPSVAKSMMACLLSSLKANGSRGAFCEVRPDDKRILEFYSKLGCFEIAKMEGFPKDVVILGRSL
Experimental: Inhibitors identified from the screen described in Example 1 were evaluated for IC50 using a procedure adapted from Biochem. J. 2009, 420, 221-227. IC50 determination was carried out using a range of inhibitor concentrations from 300 μM to 0.003 μM or 100 μM to 0.001 μM. IC50 values were calculated using XLFit 4.

human OGA [5] = molecular target: T2, human OGA; experiment: Determination of Ki values for inhibition of human OGA (4MU-GlcNAc substrate); format: biochemical; conditions: 2 nM human OGA, McIlvaine buffer pH 7.4, one hour
Experimental: Enzymatic reactions were carried out in McIlvaine buffer (0.2M Na2PO4, 0.1M citric acid; pH 7.4) using 2 nM human OGA and 4MU-GlcNAc as substrate in the presence of inhibitor. For the Ki of AXX inhibitor concentrations were 0, 20, 40, 80, 160 and 320 nM [for the Ki determination of other compounds either the same concentrations or similar concentrations were used] and 4MU-GlcNAc concentrations were 50, 100, 200, 400, 800, 1600, and 3200 μM. Reactions were left for one hour. […] Modes of inhibition were determined by Lineweaver-Burke analysis and Ki values were determined using GraphPad 5 Prism non-linear regression analysis.

IC50 [1] [nM]	Selectivity: IC50(human β-hexosaminidase)/IC50(Human OGA) [2]	EC50 [3] [nM]	IC50 (human OGA [4]) [nM]	Ki (human OGA [5]) [nM]	SMILES
> 300000	>28571	1230	11	72	CCCNC(=O)C[C@@H]1[C@H](O)[C@H](O)[C@@H](CO)N1CCCCc1ccccc1 [Compound A022, 2-((2R,3S,4R,5R)-3,4-dihydroxy-5-(hydroxymethyl)-1-(4-phenylbutyl)pyrrolidin-2-yl)-N-propylacetamide]
69000	5000	931	14	–	CNC(=O)C[C@@H]1[C@H](O)[C@H](O)[C@@H](CO)N1CCCC(C)C [Compound A018, 2-((2R,3S,4R,5R)-3,4-dihydroxy-5-(hydroxymethyl)-1-(4-methylpentyl)pyrrolidin-2-yl)-N-methylacetamide]
10100	>3366	127	< 3	–	CNC(=O)C[C@@H]1[C@H](O)[C@H](O)[C@@H](CO)N1CCCCCNS(=O)(=O)c1ccc(C)cc1 [Compound A064, 2-((2R,3S,4R,5R)-3,4-dihydroxy-5-(hydroxymethyl)-1-(5-(4-methylphenylsulfonamido)pentyl)pyrrolidin-2-yl)-N-methylacetamide]
242000	>65405	–	3.7	64	CCNC(=O)C[C@@H]1[C@@H](O)[C@H](O)[C@@H](CO)N1CCC(c1ccccc1)c1ccccc1 [Compound A068, 2-((2R,3R,4R,5R)-1-(3,3-diphenylpropyl)-3,4-dihydroxy-5-(hydroxymethyl)pyrrolidin-2-yl)-N-ethylacetamide]
> 300000	>4366	1900	69	–	CCN1[C@H](CC(=O)NC)[C@H](O)[C@H](O)[C@H]1CO [Compound A019, 2-((2R,3S,4R,5R)-1-ethyl-3,4-dihydroxy-5-(hydroxymethyl)pyrrolidin-2-yl)-N-methylacetamide]
33000	3666	1540	9	–	CNC(=O)C[C@@H]1[C@H](O)[C@H](O)[C@@H](CO)N1CCc1ccccc1 [Compound A010, 2-((2R,3S,4R,5R)-3,4-dihydroxy-5-(hydroxymethyl)-1-phenethylpyrrolidin-2-yl)-N-methylacetamide]
9.9	0.42	–	23.7	–	CCCCCCN1[C@H](CO)[C@@H](O)[C@H](O)[C@H]1CC(=O)NC [Compound A046, 2-((2R,3R,4R,5R)-1-hexyl-3,4-dihydroxy-5-(hydroxymethyl)pyrrolidin-2-yl)-N-methylacetamide]
> 300000	>8333	1010	36	–	CCNC(=O)C[C@@H]1[C@@H](O)[C@H](O)[C@@H](CO)N1CCCc1ccc(Cl)cc1 [Compound A063, 2-((2R,3R,4R,5R)-1-(3-(4-chlorophenyl)propyl)-3,4-dihydroxy-5-(hydroxymethyl)pyrrolidin-2-yl)-N-ethylacetamide]
15000	>5000	–	< 3	–	CNC(=O)C[C@@H]1[C@H](O)[C@H](O)[C@@H](CO)N1CCCCCNS(=O)(=O)c1ccc(Oc2ccccc2)cc1 [Compound A067, 2-((2R,3S,4R,5R)-3,4-dihydroxy-5-(hydroxymethyl)-1-(5-(4-phenoxyphenylsulfonamido)pentyl)pyrrolidin-2-yl)-N-methylacetamide]

The next lines start with the compound.

SMILES	IC50 [1] [nM]	Selectivity: IC50(human β-hexosaminidase)/IC50(Human OGA) [2]	EC50 [3] [nM]	IC50 (human OGA [4]) [nM]	Ki (human OGA [5]) [nM]
CN(C)c1ccc(S(=O)(=O)NCCCCCCN2[C@H](CC(N)=O)[C@H](O)[C@H](O)[C@H]2CO)c2ccccc12 [Compound A015, 2-((2R,3S,4R,5R)-1-(6-(4-(dimethylamino)naphthalene-1-sulfonamido)hexyl)-3,4-dihydroxy-5-(hydroxymethyl)pyrrolidin-2-yl)acetamide]	11000	>3666	80	< 3	–
CCCCCCN1[C@H](CO)[C@@H](O)[C@H](O)[C@H]1CC(=O)NCC [Compound A053, N-ethyl-2-((2R,3R,4R,5R)-1-hexyl-3,4-dihydroxy-5-(hydroxymethyl)pyrrolidin-2-yl)acetamide]	> 300000	>4769	1410	62.9	–
CCCCCCN1[C@H](CO)[C@@H](O)[C@H](O)[C@H]1CC(=O)NCCC [Compound A055, 2-((2R,3R,4R,5R)-1-hexyl-3,4-dihydroxy-5-(hydroxymethyl)pyrrolidin-2-yl)-N-propylacetamide]	> 300000	>2529	3720	119	–
CCNC(=O)C[C@H]1N[C@H](CO)[C@@H](O)[C@@H]1O [Compound A050, 2-((2R,3R,4R,5R)-3,4-dihydroxy-5-(hydroxymethyl)pyrrolidin-2-yl)-N-ethylacetamide]	> 300000	>728	2720	412	–
CCCNC(=O)C[C@H]1N[C@H](CO)[C@@H](O)[C@@H]1O [Compound A052, 2-((2R,3R,4R,5R)-3,4-dihydroxy-5-(hydroxymethyl)pyrrolidin-2-yl)-N-propylacetamide]	> 300000	>2654	1070	113	–
CCCCCCCCCN1[C@H](CC(=O)NCCC)[C@H](O)[C@H](O)[C@H]1CO [Compound A008, 2-((2R,3S,4R,5R)-3,4-dihydroxy-5-(hydroxymethyl)-1-nonylpyrrolidin-2-yl)-N-propylacetamide]	> 300000	>25000	–	12	55
CCCCCCN1[C@H](CC(=O)NC2CC2)[C@H](O)[C@H](O)[C@H]1CO [Compound A049, N-cyclopropyl-2-((2R,3S,4R,5R)-1-hexyl-3,4-dihydroxy-5-(hydroxymethyl)pyrrolidin-2-yl)acetamide]	> 300000	>283	–	1060	–
CNC(=O)C[C@@H]1N[C@H](CO)[C@@H](O)[C@@H]1O [Compound A045, 2-((2S,3R,4R,5R)-3,4-dihydroxy-5-(hydroxymethyl)pyrrolidin-2-yl)-N-methylacetamide]	2760	4.71	–	586	–
CNC(=O)C[C@H]1N[C@H](CO)[C@@H](O)[C@H]1O [Compound A007, 2-((2R,3S,4R,5R)-3,4-dihydroxy-5-(hydroxymethyl)pyrrolidin-2-yl)-N-methylacetamide]	> 300000	>3000	4000	102	–
